Data published in BindingDB's records for doi:10.1016/j.bmc.2005.11.005 (Wyeth Research, 2006).

Each compound was assayed against T1, Tyrosine-protein phosphatase non-receptor type 1 [1-298] (Homo sapiens, UniProt P18031) (assay: Enzymatic Assay). Details: 25 °C.
T1 construct: 1-298
T1 sequence (P18031 whole entry): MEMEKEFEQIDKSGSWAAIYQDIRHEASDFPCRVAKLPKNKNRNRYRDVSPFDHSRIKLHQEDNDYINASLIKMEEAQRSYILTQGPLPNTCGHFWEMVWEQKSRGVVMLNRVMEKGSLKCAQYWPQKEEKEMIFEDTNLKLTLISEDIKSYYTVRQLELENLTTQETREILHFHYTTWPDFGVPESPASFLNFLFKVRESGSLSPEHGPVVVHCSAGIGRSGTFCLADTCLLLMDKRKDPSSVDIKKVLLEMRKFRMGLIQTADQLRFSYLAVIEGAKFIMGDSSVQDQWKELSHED
Method: (§1) The enzymatic assay was carried out at room temperature in 96-well plates. […] All the assays were carried out in duplicate or triplicate and the average results are presented. Ki is derived from IC50 based on competitive inhibition Ki = IC50 x Km/ (Km + [substrate]).

Row | Ki | SMILES
1 | 10 µM | O=C(O)COc1c(C(=O)O)sc2c1sc1c(Cl)cccc12 [5-(carboxymethoxy)-9-chloro-3,7-dithiatricyclo[6.4.0.0^{2,6}]dodeca-1(8),2(6),4,9,11-pentaene-4-carboxylic acid]
2 | 37 µM | Cc1cccc2c(OCC(=O)O)c(C(=O)O)sc12 [3-(carboxymethoxy)-7-methyl-1-benzothiophene-2-carboxylic acid]
3 | 0.92 µM | O=C(O)COc1c(C(=O)O)sc2c1sc1c(NCC3CCCCC3)cccc12 [5-(carboxymethoxy)-9-[(cyclohexylmethyl)amino]-3,7-dithiatricyclo[6.4.0.0^{2,6}]dodeca-1(8),2(6),4,9,11-pentaene-4-carboxylic acid]
4 | 3.5 µM | O=C(O)COc1c(C(=O)O)sc2c1sc1cc(Cl)ccc12 [5-(carboxymethoxy)-10-chloro-3,7-dithiatricyclo[6.4.0.0^{2,6}]dodeca-1(8),2(6),4,9,11-pentaene-4-carboxylic acid]
5 | 0.74 µM | O=C(O)COc1c(C(=O)O)sc2c1sc1cc(NC3CCCCC3)ccc12 [5-(carboxymethoxy)-10-(cyclohexylamino)-3,7-dithiatricyclo[6.4.0.0^{2,6}]dodeca-1(8),2(6),4,9,11-pentaene-4-carboxylic acid]
6 | > 500 µM | O=C(O)COc1c(C(=O)O)sc2c1cnc1ccccc12 [5-(carboxymethoxy)-3-thia-8-azatricyclo[7.4.0.0^{2,6}]trideca-1(9),2(6),4,7,10,12-hexaene-4-carboxylic acid]
7 | 1.6 µM | CCS(=O)(=O)N1CCC(Nc2ccc3c(c2)sc2c(OCC(=O)O)c(C(=O)O)sc23)CC1 [5-(carboxymethoxy)-10-{[1-(ethanesulfonyl)piperidin-4-yl]amino}-3,7-dithiatricyclo[6.4.0.0^{2,6}]dodeca-1(8),2(6),4,9,11-pentaene-4-carboxylic acid]
8 | 0.68 µM | O=C(O)COc1c(C(=O)O)sc2c1sc1cc(NCC3CCCCC3)ccc12 [5-(carboxymethoxy)-10-[(cyclohexylmethyl)amino]-3,7-dithiatricyclo[6.4.0.0^{2,6}]dodeca-1(8),2(6),4,9,11-pentaene-4-carboxylic acid]
9 | 2.4 µM | O=C(O)COc1c(C(=O)O)sc2c1sc1cc(NC3CCOCC3)ccc12 [5-(carboxymethoxy)-10-(oxan-4-ylamino)-3,7-dithiatricyclo[6.4.0.0^{2,6}]dodeca-1(8),2(6),4,9,11-pentaene-4-carboxylic acid]
10 | 9.2 µM | O=C(O)COc1c(C(=O)O)sc2c1sc1ccccc12 [5-(carboxymethoxy)-3,7-dithiatricyclo[6.4.0.0^{2,6}]dodeca-1(8),2(6),4,9,11-pentaene-4-carboxylic acid]
11 | 1.7 µM | O=C(O)COc1c(C(=O)O)sc2c1sc1c(NC3CCCCC3)cccc12 [5-(carboxymethoxy)-9-(cyclohexylamino)-3,7-dithiatricyclo[6.4.0.0^{2,6}]dodeca-1(8),2(6),4,9,11-pentaene-4-carboxylic acid]
12 | 11 µM | O=C(O)COc1c(C(=O)O)sc2c1ccc1ccccc12 [5-(carboxymethoxy)-3-thiatricyclo[7.4.0.0^{2,6}]trideca-1(9),2(6),4,7,10,12-hexaene-4-carboxylic acid]
13 | 119 µM | O=C(O)COc1c(C(=O)O)sc2c(Cl)cccc12 [3-(carboxymethoxy)-7-chloro-1-benzothiophene-2-carboxylic acid]

Same assay, conditions: pH 7; 22 °C

Row | Ki | SMILES
14 | 61 µM | O=C(O)COc1c(C(=O)O)sc2cc(Cl)ccc12 [3-(carboxymethoxy)-6-chloro-1-benzothiophene-2-carboxylic acid]
15 | 160 µM | O=C(O)COc1c(C(=O)O)sc2ccccc12 [3-(carboxymethoxy)-1-benzothiophene-2-carboxylic acid]
16 | 30 µM | O=C(O)COc1c(C(=O)O)sc2cc(-c3cccs3)ccc12 [3-(carboxymethoxy)-6-(thiophen-2-yl)-1-benzothiophene-2-carboxylic acid]
17 | > 2500 µM | O=C(O)COc1c(C(=O)O)oc2ncccc12 [3-(carboxymethoxy)furo[2,3-b]pyridine-2-carboxylic acid]
18 | > 2500 µM | Cc1cc2sc(C(=O)O)c(OCC(=O)O)c2cn1 [3-(carboxymethoxy)-6-methylthieno[3,2-c]pyridine-2-carboxylic acid]
19 | 860 µM | O=C(O)COc1cc2ccccc2cc1C(=O)O [3-(carboxymethoxy)naphthalene-2-carboxylic acid]
20 | 77 µM | O=C(O)COc1c(C(=O)O)sc2cccnc12 [3-(carboxymethoxy)thieno[3,2-b]pyridine-2-carboxylic acid]
21 | 26 µM | O=C(O)COc1c(C(=O)O)sc2cc(-c3ccc(O)cc3)ccc12 [3-(carboxymethoxy)-6-(4-hydroxyphenyl)-1-benzothiophene-2-carboxylic acid]
22 | 52 µM | O=C(O)c1sc2cc(Cl)ccc2c1OC(F)C(=O)O (centres undefined) [3-[carboxy(fluoro)methoxy]-6-chloro-1-benzothiophene-2-carboxylic acid]
23 | 42 µM | O=C(O)COc1c(C(=O)O)sc2cc(Br)ccc12 [6-bromo-3-(carboxymethoxy)-1-benzothiophene-2-carboxylic acid]
24 | 128 µM | O=C(O)COc1c(C(=O)O)sc2cc(-c3ccccc3)ccc12 [3-(carboxymethoxy)-6-phenyl-1-benzothiophene-2-carboxylic acid]
25 | 280 µM | O=C(O)COc1c(C(=O)O)sc2ccsc12 [3-(carboxymethoxy)thieno[3,2-b]thiophene-2-carboxylic acid]
26 | 20 µM | O=C(O)COc1c(C(=O)O)sc2cc(C(=O)Nc3ccn(-c4ccccc4)n3)ccc12 [3-(carboxymethoxy)-6-[(1-phenyl-1H-pyrazol-3-yl)carbamoyl]-1-benzothiophene-2-carboxylic acid]
27 | > 2500 µM | CC(Oc1c(C(=O)O)sc2cc(Cl)ccc12)C(=O)O (centres undefined) [3-(1-carboxyethoxy)-6-chloro-1-benzothiophene-2-carboxylic acid]

What follows are compounds tested against T2, Tyrosine-protein phosphatase non-receptor type 2 (Homo sapiens, UniProt P17706) (assay: Enzymatic Assay). Details: 25 °C.
T2 sequence (P17706 whole entry): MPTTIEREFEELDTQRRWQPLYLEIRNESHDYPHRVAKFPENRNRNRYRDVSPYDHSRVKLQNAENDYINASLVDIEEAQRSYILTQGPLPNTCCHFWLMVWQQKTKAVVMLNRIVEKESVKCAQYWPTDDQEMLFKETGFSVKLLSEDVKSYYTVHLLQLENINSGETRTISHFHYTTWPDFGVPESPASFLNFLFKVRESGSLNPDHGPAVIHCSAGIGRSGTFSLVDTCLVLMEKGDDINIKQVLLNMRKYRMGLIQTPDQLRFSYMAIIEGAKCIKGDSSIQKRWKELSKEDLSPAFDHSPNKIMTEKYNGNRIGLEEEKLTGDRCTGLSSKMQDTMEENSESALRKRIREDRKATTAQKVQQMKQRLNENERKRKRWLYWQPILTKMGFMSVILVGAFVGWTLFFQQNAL
Method: as §1

Row | Ki | SMILES
28 | 0.38 µM | O=C(O)COc1c(C(=O)O)sc2c1sc1cc(NC3CCN(S(=O)(=O)Cc4ccccc4)CC3)ccc12 [5-(carboxymethoxy)-10-{[1-(phenylmethane)sulfonylpiperidin-4-yl]amino}-3,7-dithiatricyclo[6.4.0.0^{2,6}]dodeca-1(8),2(6),4,9,11-pentaene-4-carboxylic acid]
29 | 4.1 µM | O=C(O)COc1c(C(=O)O)sc2c1sc1ccccc12 [5-(carboxymethoxy)-3,7-dithiatricyclo[6.4.0.0^{2,6}]dodeca-1(8),2(6),4,9,11-pentaene-4-carboxylic acid]
